Results reported in patent publication US20250230193A1, “CYCLIC COMPOUND HAVING SELECTIVE KRAS INHIBITORY EFFECT ON HRAS AND NRAS” (CHUGAI SEIYAKU KABUSHIKI KAISHA, priority 2022, published 2025).
Where a SMILES comes first, the peptide text is derived from it. Bridges are numbered along the chain shown (N, C = ends). [ ]: non-standard residue; d: D form. The star is where a group is joined. hPhe(3-Cl-4-CF3) = N[C@@H](CCc1ccc(C(F)(F)F)c(Cl)c1)C(=O)O; NPrPhe(4-CF3) = CCCN[C@@H](Cc1ccc(C(F)(F)F)cc1)C(=O)O; NEtPhe(4-CF3) = CCN[C@@H](Cc1ccc(C(F)(F)F)cc1)C(=O)O; NMeGly(cPent) = CN[C@H](C(=O)O)C1CCCC1; NMeD = CN[C@@H](CC(=O)O)C(=O)O; NMeL = CN[C@@H](CC(C)C)C(=O)O; NMeNva = CCC[C@H](NC)C(=O)O; Morpholide = C1CN(*)CCO1; Ac5c = NC1(C(=O)O)CCCC1; Sar = CNCC(=O)O

Key:
[1] = target: GDP-bound NRAS wild-type protein (Homo sapiens, UniProt P01111); test: Binding to NRAS by surface plasmon resonance (SPR), Single Cycle Kinetics; settings: for NRAS/KRAS (ratio of KD value with respect to NRAS to KD value with respect to KRAS) / NRAS/KRAS (ratio of KD value for NRAS to KD value for KRAS): GDP-bound NRAS wild-type vs GDP-bound KRAS wild-type
[2] = target: GDP-bound HRAS wild-type protein (Homo sapiens, UniProt P01112); test: Binding to HRAS by surface plasmon resonance (SPR), Single Cycle Kinetics; settings: for HRAS/KRAS (ratio of KD value with respect to HRAS to KD value with respect to KRAS) / HRAS/KRAS (ratio of KD value for HRAS to KD value for KRAS): GDP-bound HRAS wild-type vs GDP-bound KRAS wild-type
Chain of GDP-bound HRAS wild-type protein (P01112 whole entry): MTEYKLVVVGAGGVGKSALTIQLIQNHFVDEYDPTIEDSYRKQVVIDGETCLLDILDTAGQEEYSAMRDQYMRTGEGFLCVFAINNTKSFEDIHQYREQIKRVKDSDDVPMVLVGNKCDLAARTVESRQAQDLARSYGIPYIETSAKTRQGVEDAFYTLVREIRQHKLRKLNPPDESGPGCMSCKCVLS

Chain of GDP-bound NRAS wild-type protein (P01111 whole entry): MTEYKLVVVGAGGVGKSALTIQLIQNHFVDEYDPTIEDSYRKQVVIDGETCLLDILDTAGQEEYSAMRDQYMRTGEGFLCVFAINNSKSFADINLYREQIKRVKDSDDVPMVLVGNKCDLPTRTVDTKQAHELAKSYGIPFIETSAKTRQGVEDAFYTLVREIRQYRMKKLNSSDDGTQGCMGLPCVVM

SMILES: CCCN(C)C(=O)[C@@H]1CC(=O)N(C)[C@@H](CC(C)C)C(=O)N[C@@H]([C@@H](C)CC)C(=O)N(C)CC(=O)N(C)[C@H]2C/C=C\CCN(C2=O)[C@@H](Cc2ccc(C(F)(F)F)cc2)C(=O)N(C)CC(=O)N[C@@H](CCc2cc(F)c(C(F)(F)F)c(F)c2)C(=O)N2C[C@H](OCC)C[C@H]2C(=O)NC2(CCC2)C(=O)N(C)[C@@H](C2CCCC2)C(=O)N1C [PP1387]
- NRAS/KRAS (ratio of KD value for GDP-bound NRAS wild-type protein to KD value for KRAS) ([1]; SPR, KD ratio class): A (a compound having 10 or more and less than 20 is denoted as A)
- HRAS/KRAS (ratio of KD value for GDP-bound HRAS wild-type protein to KD value for KRAS) ([2]; SPR, KD ratio class): B (a compound having 3 or more and less than 10 is denoted as B)

SMILES: CCO[C@@H]1C[C@H]2C(=O)NC3(CCC3)C(=O)N(C)[C@@H](C3CCCC3)C(=O)N(C)[C@H](C(=O)N(C)C)CC(=O)N(C)[C@@H](CC)C(=O)N[C@@H]([C@@H](C)CC)C(=O)N(C)CC(=O)N(C)[C@H]3C/C=C\CCN(C3=O)[C@@H](Cc3ccc(C(F)(F)F)cc3)C(=O)N(C)CC(=O)N[C@@H](CCc3ccc(C(F)(F)F)c(Cl)c3)C(=O)N2C1 [PP0978]
- NRAS/KRAS (ratio of KD value with respect to NRAS to KD value with respect to KRAS) ([1]; SPR): A (a compound having 10 or more and less than 20 is denoted as A)
- HRAS/KRAS (ratio of KD value with respect to HRAS to KD value with respect to KRAS) ([2]; SPR): B (a compound having 3 or more and less than 10 is denoted as B)

SMILES: CC[C@H](C)[C@@H]1NC(=O)[C@H](CC2CC2)N(C)C(=O)C[C@@H](C(=O)N(C)C)N(C)C(=O)[C@H](C2CCCC2)N(C)C(=O)C2(CCC2)N(C)C(=O)[C@@H]2CCCN2C(=O)[C@H](CCc2cc(F)c(C(F)(F)F)c(F)c2)NC(=O)CN(C)C(=O)[C@H](Cc2ccc(C)cc2)N2CC/C=C\C[C@@H](C2=O)N(C)C(=O)CN(C)C1=O [PP1796]
- NRAS/KRAS (ratio of KD value for NRAS to KD value for KRAS) ([1]; SPR): A (a compound having 10 or more and less than 20 is denoted as A)
- HRAS/KRAS (ratio of KD value for HRAS to KD value for KRAS) ([2]; SPR): B (a compound having 3 or more and less than 10 is denoted as B)

SMILES: CCC(CC)[C@H]1C(=O)N(C)[C@H](C(=O)N(C)C)CC(=O)N(C)[C@@H](COC)C(=O)N[C@@H]([C@@H](C)CC)C(=O)N(C)CC(=O)N(C)[C@H]2C/C=C\CCN(C2=O)[C@@H](Cc2ccc(C(F)(F)F)cc2)C(=O)N(C)CC(=O)N[C@@H](CCc2ccc(Cl)c(Cl)c2)C(=O)N2CCOC[C@H]2C(=O)NC2(CC(C)(C)C2)C(=O)N1C [PP2941]
- NRAS/KRAS (ratio of KD value with respect to GDP-bound NRAS wild-type protein to KD value with respect to KRAS) ([1]; KD ratio NRAS/KRAS, class symbols): AA (a compound having 20 or more is denoted as AA)
- HRAS/KRAS (ratio of KD value with respect to GDP-bound HRAS wild-type protein to KD value with respect to KRAS) ([2]; KD ratio HRAS/KRAS, class symbols): A (a compound having 10 or more and less than 20 is denoted as A)

SMILES: CC[C@H](C)[C@@H]1NC(=O)[C@H](CC(C)C)N(C)C(=O)C[C@@H](C(=O)N2CCOCC2)N(C)C(=O)[C@H](C2CCCC2)N(C)C(=O)C2(CCCC2)NC(=O)[C@@H]2CCCN2C(=O)[C@H](CCc2ccc(C(F)(F)F)c(Cl)c2)NC(=O)CN(C)C(=O)[C@H](Cc2ccc(C(F)(F)F)cc2)N(CC)C(=O)CN(C)C(=O)CN(C)C1=O [PP0023] ([NMeL]I[Sar][Sar][NEtPhe(4-CF3)][Sar][hPhe(3-Cl-4-CF3)]P[Ac5c][NMeGly(cPent)][NMeD]-Morpholide; lactam N-11)
- NRAS/KRAS (ratio of KD for GDP-bound NRAS wild-type to KD for KRAS) ([1]; KD ratio NRAS/KRAS, SPR): B (a compound having 3 or more and less than 10 is denoted as B)
- HRAS/KRAS (ratio of KD for GDP-bound HRAS wild-type to KD for KRAS) ([2]; KD ratio HRAS/KRAS, SPR): C (A compound having a KD ratio of 0.1 or more and less than 3 is denoted as C)

SMILES: CCC[C@H]1C(=O)N[C@@H]([C@@H](C)CC)C(=O)N(C)CC(=O)N(C)[C@H]2C/C=C\CCN(C2=O)[C@@H](Cc2ccc(C)cc2)C(=O)N(C)CC(=O)N[C@@H](CCc2cc(F)c(C(F)(F)F)c(F)c2)C(=O)N2C[C@@H](C)C[C@H]2C(=O)NC2(CCC2)C(=O)N(C)[C@@H](C2CCCC2)C(=O)N(C)[C@H](C(=O)N(C)CC)CC(=O)N1C [PP1860]
- NRAS/KRAS (ratio of KD value for NRAS to KD value for KRAS) ([1]; SPR): A (a compound having 10 or more and less than 20 is denoted as A)
- HRAS/KRAS (ratio of KD value for HRAS to KD value for KRAS) ([2]; SPR): A (a compound having 10 or more and less than 20 is denoted as A)

SMILES: CCO[C@@H]1C[C@H]2C(=O)NC3(CCC3)C(=O)N(C)[C@@H](C3CCCC3)C(=O)N(C)[C@H](C(=O)N(C)C)CC(=O)N(C)[C@@H](CSC)C(=O)N[C@@H]([C@@H](C)CC)C(=O)N(C)CC(=O)N(C)[C@H]3C/C=C\CCN(C3=O)[C@@H](Cc3ccc(C(F)(F)F)cc3)C(=O)N(C)CC(=O)N[C@@H](CCc3cc(F)c(C(F)(F)F)c(F)c3)C(=O)N2C1 [PP1119]
- NRAS/KRAS (ratio of KD value with respect to NRAS to KD value with respect to KRAS) ([1]; SPR): A (a compound having 10 or more and less than 20 is denoted as A)
- HRAS/KRAS (ratio of KD value with respect to HRAS to KD value with respect to KRAS) ([2]; SPR): A (a compound having 10 or more and less than 20 is denoted as A)

SMILES: CCC[C@H]1C(=O)N[C@@H]([C@@H](C)CC)C(=O)N(C)CC(=O)N(C)CC(=O)N(CCC)[C@@H](Cc2ccc(C(F)(F)F)cc2)C(=O)N(C)CC(=O)N[C@@H](CCc2ccc(C(F)(F)F)c(Cl)c2)C(=O)N2CCC[C@H]2C(=O)NC2(CCCC2)C(=O)N(C)[C@@H](C2CCCC2)C(=O)N(C)[C@H](C(=O)N2CCOCC2)CC(=O)N1C [PP0189] ([NMeNva]I[Sar][Sar][NPrPhe(4-CF3)][Sar][hPhe(3-Cl-4-CF3)]P[Ac5c][NMeGly(cPent)][NMeD]-Morpholide; lactam N-11)
- NRAS/KRAS (ratio of KD for GDP-bound NRAS wild-type to KD for KRAS) ([1]; KD ratio NRAS/KRAS, SPR): B (a compound having 3 or more and less than 10 is denoted as B)
- HRAS/KRAS (ratio of KD for GDP-bound HRAS wild-type to KD for KRAS) ([2]; KD ratio HRAS/KRAS, SPR): C (A compound having a KD ratio of 0.1 or more and less than 3 is denoted as C)
